Here are results for 33 compounds from US9790213B2, “Imidazoles for the treatment and prophylaxis of respiratory syncytial virus infection” (Hoffmann-La Roche Inc., priority 2015, dated 2017).

One assay deals with RSV Long strain (ATCC VR-26). The assay can be described thus: Viral cytopathic effect (CPE) assay. Format: cell-based. Particulars: human respiratory syncytial virus, 120 h, cell viability after 5 days (Cell Counting kit-8). How it is done: EC50: the concentration of a compound where 50% of its maximal protection effect against viral induced CPE is observed LongStrain: a subtype RSV strain obtained from ATCC with catalog number VR-26 To measure anti-RSV activity of compounds, 96-well plates were seeded with 6×10^3 cells per well in Dulbecco's modified Eagle's medium (DMEM) containing 10% fetal bovine serum (FBS). Cells were infected the next day with sufficient RSV Long strain (ATCC) to produce an approximately 80-90% cytopathic effect after 5 days, in the presence of serial half-log diluted compound in a total volume of 200 μL per well. The viability of cells is assessed after 5 days using Cell Counting kit-8 (Dojindo Molecular Technologies). The absorbance at 450 nm and referenced at 630 nm is measured to determine 50% effective concentration (EC50).
`COc1ccccc1-n1c(C)nc(-c2nc(-c3cc(OC)c(OC)c(OC)c3)no2)c1C` [Example 1-23, 5-[1-(2-Methoxy-phenyl)-2,5-dimethyl-1H-imidazol-4-yl]-3-(3,4,5-trimethoxy-phenyl)-[1,2,4]oxadiazole]: the midpoint of the response, the EC50, lay at 2.08 µM.
`COC(=O)c1ccc(-c2noc(-c3nc(C)n(-c4ccccc4Cl)c3C)n2)c(OC)c1` [Example 1-19, 4-{5-[1-(2-Chloro-phenyl)-2,5-dimethyl-1H-imidazol-4-yl]-[1,2,4]oxadiazol-3-yl}-3-methoxy-benzoic acid methyl ester] showed an EC50 of 0.92 µM.
Still for that read-out and setting: the value for `COc1ccc(-c2noc(-c3nc(C)n(-c4ccccc4Cl)c3C)n2)c(OC)c1` [Example 1-16, 5-[1-(2-Chloro-phenyl)-2,5-dimethyl-1H-imidazol-4-yl]-3-(2,4-dimethoxy-phenyl)-[1,2,4]oxadiazole] was 1.47 µM; that for `COc1ccccc1-c1noc(-c2nc(C)n(-c3ccccc3Cl)c2C)n1` [Example 1-14, 5-[1-(2-Chloro-phenyl)-2,5-dimethyl-1H-imidazol-4-yl]-3-(2-methoxy-phenyl)-[1,2,4]oxadiazole] was 0.68 µM.
The same measure, in the same setting: as for `COc1cc(-c2noc(-c3ncn(-c4c(C)cccc4C)c3C)n2)cc(OC)c1OC` [Example 1-6, 5-(1-(2,6-Dimethylphenyl)-5-methyl-1H-imidazol-4-yl)-3-(3,4,5-trimethoxyphenyl)-1,2,4-oxadiazole], the figure is 0.51 µM; as for `COc1ccc(-c2noc(-c3ncn(-c4c(C)cccc4C)c3C)n2)c(OC)c1` [Example 1-12, 3-(2,4-Dimethoxy-phenyl)-5-[1-(2,6-dimethyl-phenyl)-5-methyl-1H-imidazol-4-yl]-[1,2,4]oxadiazole], 0.362 µM.
On the same count and under the same terms, as for `COc1cc(C(=O)O)ccc1-c1noc(-c2ncn(-c3c(C)cccc3C)c2C)n1` [Example 2-3, 4-{5-[1-(2,6-Dimethyl-phenyl)-5-methyl-1H-imidazol-4-yl]-[1,2,4]oxadiazol-3-yl}-3-methoxy-benzoic acid], the figure is 1.97 µM; as for `COc1cc(-c2noc(-c3ncn(-c4c(C)cccc4Cl)c3C)n2)cc(OC)c1OC` [Example 1-9, 5-[1-(2-Chloro-6-methyl-phenyl)-5-methyl-imidazol-4-yl]-3-(3,4,5-trimethoxyphenyl)-1,2,4-oxadiazole], 0.22 µM; as for `COc1cc(-c2noc(-c3nc(C)n(-c4ccccc4Cl)c3C)n2)cc(OC)c1OC` [Example 1-18, 5-[1-(2-Chloro-phenyl)-2,5-dimethyl-1H-imidazol-4-yl]-3-(3,4,5-trimethoxy-phenyl)-[1,2,4]oxadiazole], 1.59 µM.
Compound `COc1cccc(-c2noc(-c3nc(C)n(-c4ccccc4Cl)c3C)n2)c1` [Example 1-22, 5-[1-(2-Chloro-phenyl)-2,5-dimethyl-1H-imidazol-4-yl]-3-(3-methoxy-phenyl)-[1,2,4]oxadiazole] came in with an EC50 of 5.96 µM.
Still for that read-out and setting: as for `COc1cc(-c2noc(-c3ncn(-c4c(C)cccc4C)c3C)n2)ccc1C(=O)O` [Example 2-4, 4-{5-[1-(2,6-Dimethyl-phenyl)-5-methyl-1H-imidazol-4-yl]-[1,2,4]oxadiazol-3-yl}-2-methoxy-benzoic acid], the figure is 0.76 µM.
On the same count and under the same terms, the value for `COc1ccc(-c2noc(-c3nc(C)n(-c4ccccc4Cl)c3C)n2)cc1` [Example 1-11, 5-[1-(2-Chloro-phenyl)-2,5-dimethyl-1H-imidazol-4-yl]-3-(4-methoxy-phenyl)-[1,2,4]oxadiazole] was 5.07 µM; that for `COc1ccc(-c2noc(-c3nc(C)n(-c4ccccc4Cl)c3C)n2)c(F)c1` [Example 1-20, 5-[1-(2-Chloro-phenyl)-2,5-dimethyl-1H-imidazol-4-yl]-3-(2-fluoro-4-methoxy-phenyl)-[1,2,4]oxadiazole] was 2.99 µM.
Still for that read-out and setting: the value for `COc1cc(-c2noc(-c3ncc(-c4ccccc4Cl)n3C)n2)cc(OC)c1OC` [Example 1-25, 5-[5-(2-Chlorophenyl)-1-methyl-imidazol-2-yl]-3-(3,4,5-trimethoxyphenyl)-1,2,4-oxadiazole] was 1.28 µM.
For the compound `COc1ccc(-c2noc(-c3ncn(-c4c(C)cccc4Cl)c3C)n2)cc1` [Example 1-15, 5-[1-(2-Chloro-6-methyl-phenyl)-5-methyl-1H-imidazol-4-yl]-3-(4-methoxy-phenyl)-[1,2,4]oxadiazole], the EC50 came to 1.74 µM.
As for `COc1cc(-c2noc(-c3nc(Br)n(-c4ccccc4Cl)c3C)n2)cc(OC)c1OC` [Example 1-24, 5-[2-Bromo-1-(2-chloro-phenyl)-5-methyl-1H-imidazol-4-yl]-3-(3,4,5-trimethoxy-phenyl)-[1,2,4]oxadiazole], the EC50 was determined as 0.78 µM.
The same measure, in the same setting: the value for `COc1ccc(OC)c(-c2noc(-c3nc(C)n(-c4ccccc4Cl)c3C)n2)c1` [Example 1-17, 5-(1-(2-chlorophenyl)-2,5-dimethyl-1H-imidazol-4-yl)-3-(2,5-dimethoxy-phenyl)-1,2,4-oxadiazole] was 1.81 µM; that for `COc1cc(-c2noc(-c3nc(C)n(-c4ccccc4Br)c3C)n2)cc(OC)c1OC` [Example 1-3, 5-(1-(2-Bromophenyl)-2,5-dimethyl-1H-imidazol-4-yl)-3-(3,4,5-trimethoxyphenyl)-1,2,4-oxadiazole] was 0.5 µM; that for `Cc1nc(-c2nc(-c3ccc(C(=O)O)cc3)no2)c(C)n1-c1ccccc1Cl` [Example 2-2, 4-{5-[1-(2-Chloro-phenyl)-2,5-dimethyl-1H-imidazol-4-yl]-[1,2,4]oxadiazol-3-yl}-benzoic acid] was 3.08 µM.
On the same count and under the same terms, the value for `COC(=O)c1ccc(-c2noc(-c3nc(C)n(-c4ccccc4Cl)c3C)n2)cc1` [Example 1-4, 4-{5-[1-(2-Chloro-phenyl)-2,5-dimethyl-1H-imidazol-4-yl]-[1,2,4]oxadiazol-3-yl}-benzoic acid methyl ester] was 4.06 µM; that for `COc1cc(-c2noc(-c3ncn(-c4ccccc4Br)c3C)n2)cc(OC)c1OC` [Example 1-2, 5-[1-(2-Bromo-phenyl)-5-methyl-1H-imidazol-4-yl]-3-(3,4,5-trimethoxy-phenyl)-[1,2,4]oxadiazole] was 0.6 µM.
Still for that read-out and setting: the value for `COc1cc(C(=O)O)ccc1-c1noc(-c2ncn(-c3c(C)cccc3Cl)c2C)n1` [Example 2-1, 4-[5-[1-(2-Chloro-6-methyl-phenyl)-5-methyl-imidazol-4-yl]-1,2,4-oxadiazol-3-yl]-3-methoxy-benzoic acid] was 1.85 µM.
`COc1cc(-c2noc(-c3nc(CO)n(-c4ccccc4Cl)c3C)n2)cc(OC)c1OC` [Example 3-1, (1-(2-Chlorophenyl)-5-methyl-4-(3-(3,4,5-trimethoxyphenyl)-1,2,4-oxadiazol-5-yl)-1H-imidazol-2-yl)methanol] displayed an EC50 of 1.79 µM.
On the same count and under the same terms, as for `COc1cc(-c2noc(-c3cnc(-c4ccccc4Cl)n3C)n2)cc(OC)c1OC` [Example 1-26, 5-[2-(2-Chlorophenyl)-3-methyl-imidazol-4-yl]-3-(3,4,5-trimethoxyphenyl)-1,2,4-oxadiazole], the figure is 2.03 µM; as for `COc1ccc(OC)c(-c2noc(-c3nc(C)n(-c4ccccc4Br)c3C)n2)c1` [Example 1-7, 5-[1-(2-Bromo-phenyl)-2,5-dimethyl-1H-imidazol-4-yl]-3-(2,5-dimethoxy-phenyl)-[1,2,4]oxadiazole], 0.68 µM.
For `COc1ccc(-c2noc(-c3ncn(-c4c(C)cccc4C)c3C)n2)cc1` [Example 1-10, 5-(1-(2,6-Dimethylphenyl)-5-methyl-1H-imidazol-4-yl)-3-(4-methoxyphenyl)-1,2,4-oxadiazol], it took 2.4 µM to reach a half-maximal effect (EC50).
Still for that read-out and setting: the value for `COc1cc(-c2noc(-c3ncn(-c4c(C)cccc4Cl)c3C)n2)ccc1C(=O)O` [Example 2-5, 4-{5-[1-(2-Chloro-6-methyl-phenyl)-5-methyl-1H-imidazol-4-yl]-[1,2,4]oxadiazol-3-yl}-2-methoxy-benzoic acid] was 0.59 µM; that for `COc1ccc(-c2noc(-c3ncn(-c4c(C)cccc4Cl)c3C)n2)c(OC)c1` [Example 1-8, 5-[1-(2-Chloro-6-methyl-phenyl)-5-dimethyl-1H-imidazol-4-yl]-3-(2,4-dimethoxy-phenyl)-[1,2,4]oxadiazole] was 0.193 µM; that for `COC(=O)c1ccc(-c2noc(-c3nc(C)n(-c4ccccc4Cl)c3C)n2)cc1C` [Example 1-21, 4-{5-[1-(2-Chloro-phenyl)-2,5-dimethyl-1H-imidazol-4-yl]-[1,2,4]oxadiazol-3-yl}-2-methyl-benzoic acid methyl ester] was 5.31 µM.
Still for that read-out and setting: the value for `COC(=O)c1ccc(-c2noc(-c3nc(C)n(-c4ccccc4Cl)c3C)n2)cc1OC` [Example 1-13, 4-{5-[1-(2-Chloro-phenyl)-2,5-dimethyl-1H-imidazol-4-yl]-[1,2,4]oxadiazol-3-yl}-2-methoxy-benzoic acid methyl ester] was 2.38 µM; that for `COc1cc(-c2noc(-c3cn(-c4ccccc4Br)c(C)n3)n2)cc(OC)c1OC` [Example 1-1, 5-(1-(2-Bromophenyl)-2-methyl-1H-imidazol-4-yl)-3-(3,4,5-trimethoxyphenyl)-1,2,4-oxadiazole] was 0.78 µM; that for `COc1cc(-c2noc(-c3nc(C(=O)O)n(-c4ccccc4Cl)c3C)n2)cc(OC)c1OC` [Example 3-2, 1-(2-Chlorophenyl)-5-methyl-4-(3-(3,4,5-trimethoxyphenyl)-1,2,4-oxadiazol-5-yl)-1H-imidazole-2-carboxylic acid] was 4.05 µM.

The next assay relates to RSV.
Assay: not given
Particulars: two separate Phase III clinical trials, selected high-risk infants, prophylactic use; cited from earlier work.
On to “palivizumab: palivizumab (Synagis, MedImmune), approved for prophylactic use in selected high-risk infants”, for which the “reduction in hospitalization rate” value is 45-55%.
